Experimental data taken from a compilation of properties of binary mixtures (doi:10.5772/14848).

Test: xn = mol fraction of the nth substance listed
Conditions: 101 kPa

CCC[N+]1(C)CCCC1.O=S(=O)([N-]S(=O)(=O)C(F)(F)F)C(F)(F)F + O=C1CCCO1
electrical conductivity [S/m]
Conditions	278.15 K	288.15 K	298.15 K	308.15 K	318.15 K	328.15 K	338.15 K	348.15 K	358.15 K
x1 = 0.0657	0.831	0.987	1.14	1.3	1.46	–	1.8	1.96	–
x1 = 0.1741	0.965	1.18	1.39	–	1.86	2.12	2.35	–	2.82
x1 = 0.3874	–	0.765	0.979	1.22	1.47	1.74	2	–	2.56
